# Values of other authors, collected in patent US4018912A, “Tripeptide derivatives with central nervous system activity and preparation thereof” (Ayerst McKenna and Harrison Ltd., priority 1975, dated 1977).
# Read-outs that look alike come from different tables or passages of the source.
# Key:
# [1] = in vivo
# [2] = prior art; due to rapid inactivation in the mammalian body
# [3] = test system: effects of oxotremorine; details: literature (Plotnikoff et al. 1972)
# [4] = test system: effects of L-DOPA; details: literature (Plotnikoff et al. 1971; Friedman et al. 1973)
# [5] = test system: sedative effects of deserpidine; details: monkeys; literature (Plotnikoff et al. 1973)
# [6] = test system: sedative effects of deserpidine; details: mice; literature (Plotnikoff et al. 1973)
substance,measurement,setting,value
H-L-prolyl-L-leucyl-glycinamide [H--Pro--Leu--Gly--NH2],first step in the inactivation,[1],proteolytic cleavage of the Pro-Leu bond with formation of proline and leucyl-glycinamide
same,duration of action,[2],short duration of action
same,antagonism of the effects of oxotremorine,[3],antagonizes the effects of oxotremorine
same,potentiation of the behavioral effects of L-DOPA,[4],"potentiates the behavioral effects of (3,4-dihydroxyphenyl)-L-alanine (L-DOPA)"
same,reversal of the sedative effects of deserpidine,[5],reverses the sedative effects of deserpidine
same,reversal of the sedative effects of deserpidine,[6],reverses the sedative effects of deserpidine
